Measurements published in ChEMBL document CHEMBL5705895, “Species comparison and pharmacological characterization of human, monkey, rat, and mouse TRPA1 channels” (J Pharmacol Exp Ther, 2012).
pEC50, pIC50: −log10 of the molar value. The source made the active and inactive calls. No cut-off for these calls is given here.

What was measured:
Format in all cases: cell-based
[1] = target: T1, Transient receptor potential cation channel subfamily A member 1 (Homo sapiens, UniProt O75762); assay: Antagonist activity at full length human TRPA1 transfected in HEK293F cells assessed as blockade of MO-induced TRPA1 channel activation by measuring Ca2+ influx in presence of 30 uM MO by FLIPR calcium assay
[2] = target: T2, Transient receptor potential cation channel subfamily A member 1 (Rattus norvegicus, UniProt Q6RI86); assay: Antagonist activity at full length rat TRPA1 transfected in HEK293F cells assessed as blockade of MO-induced TRPA1 channel activation by measuring Ca2+ influx in presence of 30 uM MO by FLIPR calcium assay
[3] = target: T3, Transient receptor potential cation channel subfamily A member 1 (Mus musculus, UniProt Q8BLA8); assay: Antagonist activity at full length mouse TRPA1 transfected in HEK293F cells assessed as blockade of MO-induced TRPA1 channel activation by measuring Ca2+ influx in presence of 30 uM MO by FLIPR calcium assay
[4] = target: T4, Transient receptor potential cation channel subfamily A member 1 (Macaca mulatta, UniProt A0A1D5QMT1); assay: Antagonist activity at full length rhesus monkey TRPA1 transfected in HEK293F cells assessed as blockade of MO-induced TRPA1 channel activation by measuring Ca2+ influx in presence of 120 uM MO by FLIPR calcium assay
[5] = target: T3, Transient receptor potential cation channel subfamily A member 1; assay: Agonist activity at full length mouse TRPA1 transfected in HEK293F cells assessed as increase in Ca2+ influx by FLIPR calcium assay
[6] = target: Transient receptor potential cation channel subfamily A member 1 (Mus musculus) (UniProt Q8BLA8); assay: Agonist activity at full length mouse TRPA1 transfected in HEK293F cells assessed as increase in Ca2+ influx by FLIPR calcium assay relative to control; conditions: filed as agonist
[7] = target: T1, Transient receptor potential cation channel subfamily A member 1; assay: Agonist activity at full length human TRPA1 transfected in HEK293F cells assessed as increase in Ca2+ influx by FLIPR calcium assay
[8] = target: T1, Transient receptor potential cation channel subfamily A member 1; assay: Agonist activity at full length human TRPA1 transfected in HEK293F cells assessed as increase in Ca2+ influx by FLIPR calcium assay relative to MO; conditions: filed as agonist
[9] = target: T5, Transient receptor potential cation channel subfamily A member 1 (Macaca mulatta) (UniProt A0A1D5QMT1); assay: Agonist activity at rhesus monkey TRPA1 transfected in HEK293F cells assessed as increase in Ca2+ influx by FLIPR calcium assay relative to MO; conditions: filed as agonist
[10] = target: Transient receptor potential cation channel subfamily A member 1 (Rattus norvegicus) (UniProt Q6RI86); assay: Agonist activity at full length rat TRPA1 transfected in HEK293F cells assessed as increase in Ca2+ influx by FLIPR calcium assay relative to MO; conditions: filed as agonist
[11] = target: T4, Transient receptor potential cation channel subfamily A member 1; assay: Agonist activity at rhesus monkey TRPA1 transfected in HEK293F cells assessed as increase in Ca2+ influx by FLIPR calcium assay
[12] = target: T2, Transient receptor potential cation channel subfamily A member 1; assay: Agonist activity at full length rat TRPA1 transfected in HEK293F cells assessed as increase in Ca2+ influx by FLIPR calcium assay
[13] = target: T4, Transient receptor potential cation channel subfamily A member 1; assay: Activation of full length rhesus monkey TRPA1 transfected in HEK293F cells assessed as 1 mM of MO-induced current Blockade at -60 mV by whole-cell recording analysis
[14] = target: T4, Transient receptor potential cation channel subfamily A member 1; assay: Activation of full length rhesus monkey TRPA1 transfected in HEK293F cells assessed as 120 uM of MO-induced current Blockade at -60 mV by whole-cell recording analysis
[15] = target: Transient receptor potential cation channel subfamily A member 1 (Mus musculus) (UniProt Q8BLA8); assay: Agonist activity at full length mouse TRPA1 transfected in HEK293F cells assessed as blockade of MO-induced TRPA1 channel activation by measuring Ca2+ influx in presence of 30 uM MO by FLIPR calcium assay; conditions: filed as agonist
[16] = target: T1, Transient receptor potential cation channel subfamily A member 1; assay: Antagonist activity at full length human TRPA1 transfected in HEK293F cells assessed as increase in Ca2+ influx by FLIPR calcium assay; conditions: filed as antagonist
[17] = target: Transient receptor potential cation channel subfamily A member 1 (Rattus norvegicus) (UniProt Q6RI86); assay: Agonist activity at full length rat TRPA1 transfected in HEK293F cells assessed as blockade of MO-induced TRPA1 channel activation by measuring Ca2+ influx in presence of 30 uM MO by FLIPR calcium assay; conditions: filed as agonist
[18] = target: T5, Transient receptor potential cation channel subfamily A member 1 (Macaca mulatta); assay: Antagonist activity at rhesus monkey TRPA1 transfected in HEK293F cells assessed as increase in Ca2+ influx by FLIPR calcium assay; conditions: filed as antagonist
[19] = target: T1, Transient receptor potential cation channel subfamily A member 1; assay: Agonist activity at full length human TRPA1 transfected in HEK293F cells assessed as increase in Ca2+ influx in presence of 30 to 1000 uM MO by FLIPR calcium assay

T1 sequence (O75762 whole entry): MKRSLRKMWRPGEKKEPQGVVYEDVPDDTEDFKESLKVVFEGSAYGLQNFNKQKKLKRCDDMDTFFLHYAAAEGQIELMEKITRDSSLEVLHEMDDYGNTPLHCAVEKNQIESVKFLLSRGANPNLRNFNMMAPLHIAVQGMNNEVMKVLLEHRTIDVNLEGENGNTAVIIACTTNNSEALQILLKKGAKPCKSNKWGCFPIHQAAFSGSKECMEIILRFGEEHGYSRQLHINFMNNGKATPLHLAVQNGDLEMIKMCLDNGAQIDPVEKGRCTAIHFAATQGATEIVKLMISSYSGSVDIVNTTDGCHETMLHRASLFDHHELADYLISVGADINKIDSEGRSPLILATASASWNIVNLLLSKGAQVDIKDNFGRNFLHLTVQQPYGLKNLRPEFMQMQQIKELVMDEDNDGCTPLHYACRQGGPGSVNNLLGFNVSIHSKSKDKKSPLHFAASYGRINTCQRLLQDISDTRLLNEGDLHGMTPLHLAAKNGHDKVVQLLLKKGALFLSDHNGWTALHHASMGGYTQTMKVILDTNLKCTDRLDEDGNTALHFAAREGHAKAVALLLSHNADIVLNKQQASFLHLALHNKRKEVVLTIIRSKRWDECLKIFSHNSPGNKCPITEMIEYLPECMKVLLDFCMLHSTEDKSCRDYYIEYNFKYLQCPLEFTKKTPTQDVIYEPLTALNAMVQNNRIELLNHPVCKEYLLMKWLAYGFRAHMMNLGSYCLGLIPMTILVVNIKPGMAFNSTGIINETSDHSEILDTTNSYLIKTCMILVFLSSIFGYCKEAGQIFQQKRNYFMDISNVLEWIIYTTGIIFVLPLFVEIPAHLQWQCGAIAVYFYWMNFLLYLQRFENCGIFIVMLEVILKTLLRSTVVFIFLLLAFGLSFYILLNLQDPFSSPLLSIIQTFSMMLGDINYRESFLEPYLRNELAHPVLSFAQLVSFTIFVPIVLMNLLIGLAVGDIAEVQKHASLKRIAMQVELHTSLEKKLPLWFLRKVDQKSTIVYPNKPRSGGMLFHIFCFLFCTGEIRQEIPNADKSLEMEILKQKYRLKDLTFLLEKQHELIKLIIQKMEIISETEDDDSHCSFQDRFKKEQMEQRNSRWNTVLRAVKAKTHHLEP
T3 sequence (Q8BLA8 whole entry): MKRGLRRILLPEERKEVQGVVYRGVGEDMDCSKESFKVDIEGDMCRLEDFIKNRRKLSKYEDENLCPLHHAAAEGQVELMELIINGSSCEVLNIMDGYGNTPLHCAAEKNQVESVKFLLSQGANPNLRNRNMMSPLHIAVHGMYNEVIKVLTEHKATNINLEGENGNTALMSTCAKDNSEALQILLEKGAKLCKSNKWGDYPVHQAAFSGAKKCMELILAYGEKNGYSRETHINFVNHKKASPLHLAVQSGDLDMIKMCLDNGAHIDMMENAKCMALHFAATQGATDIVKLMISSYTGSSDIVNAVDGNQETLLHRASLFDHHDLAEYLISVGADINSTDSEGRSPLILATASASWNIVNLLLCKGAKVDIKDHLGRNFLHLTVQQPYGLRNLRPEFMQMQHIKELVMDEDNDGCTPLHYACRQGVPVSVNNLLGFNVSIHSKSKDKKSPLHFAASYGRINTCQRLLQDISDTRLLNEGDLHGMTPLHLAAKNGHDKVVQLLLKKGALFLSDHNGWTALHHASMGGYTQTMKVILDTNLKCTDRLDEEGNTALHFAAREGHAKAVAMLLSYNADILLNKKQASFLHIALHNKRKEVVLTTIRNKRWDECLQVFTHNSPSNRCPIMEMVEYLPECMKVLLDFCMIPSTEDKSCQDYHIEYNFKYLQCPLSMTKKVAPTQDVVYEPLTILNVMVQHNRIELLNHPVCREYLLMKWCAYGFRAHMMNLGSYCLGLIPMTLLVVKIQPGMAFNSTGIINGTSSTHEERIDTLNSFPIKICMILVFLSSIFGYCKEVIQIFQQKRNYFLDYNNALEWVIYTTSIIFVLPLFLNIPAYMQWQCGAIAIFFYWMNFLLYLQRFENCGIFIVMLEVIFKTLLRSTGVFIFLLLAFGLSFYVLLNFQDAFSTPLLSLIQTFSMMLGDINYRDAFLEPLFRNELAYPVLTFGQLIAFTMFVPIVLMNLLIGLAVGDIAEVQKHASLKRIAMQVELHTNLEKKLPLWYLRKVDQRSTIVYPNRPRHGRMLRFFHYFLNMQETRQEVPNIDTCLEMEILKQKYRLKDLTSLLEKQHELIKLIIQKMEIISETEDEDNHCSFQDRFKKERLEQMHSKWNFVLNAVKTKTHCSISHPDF
Sequence of Transient receptor potential cation channel subfamily A member 1 (Mus musculus) (Q8BLA8 whole entry): as above
T4 sequence (A0A1D5QMT1 whole entry): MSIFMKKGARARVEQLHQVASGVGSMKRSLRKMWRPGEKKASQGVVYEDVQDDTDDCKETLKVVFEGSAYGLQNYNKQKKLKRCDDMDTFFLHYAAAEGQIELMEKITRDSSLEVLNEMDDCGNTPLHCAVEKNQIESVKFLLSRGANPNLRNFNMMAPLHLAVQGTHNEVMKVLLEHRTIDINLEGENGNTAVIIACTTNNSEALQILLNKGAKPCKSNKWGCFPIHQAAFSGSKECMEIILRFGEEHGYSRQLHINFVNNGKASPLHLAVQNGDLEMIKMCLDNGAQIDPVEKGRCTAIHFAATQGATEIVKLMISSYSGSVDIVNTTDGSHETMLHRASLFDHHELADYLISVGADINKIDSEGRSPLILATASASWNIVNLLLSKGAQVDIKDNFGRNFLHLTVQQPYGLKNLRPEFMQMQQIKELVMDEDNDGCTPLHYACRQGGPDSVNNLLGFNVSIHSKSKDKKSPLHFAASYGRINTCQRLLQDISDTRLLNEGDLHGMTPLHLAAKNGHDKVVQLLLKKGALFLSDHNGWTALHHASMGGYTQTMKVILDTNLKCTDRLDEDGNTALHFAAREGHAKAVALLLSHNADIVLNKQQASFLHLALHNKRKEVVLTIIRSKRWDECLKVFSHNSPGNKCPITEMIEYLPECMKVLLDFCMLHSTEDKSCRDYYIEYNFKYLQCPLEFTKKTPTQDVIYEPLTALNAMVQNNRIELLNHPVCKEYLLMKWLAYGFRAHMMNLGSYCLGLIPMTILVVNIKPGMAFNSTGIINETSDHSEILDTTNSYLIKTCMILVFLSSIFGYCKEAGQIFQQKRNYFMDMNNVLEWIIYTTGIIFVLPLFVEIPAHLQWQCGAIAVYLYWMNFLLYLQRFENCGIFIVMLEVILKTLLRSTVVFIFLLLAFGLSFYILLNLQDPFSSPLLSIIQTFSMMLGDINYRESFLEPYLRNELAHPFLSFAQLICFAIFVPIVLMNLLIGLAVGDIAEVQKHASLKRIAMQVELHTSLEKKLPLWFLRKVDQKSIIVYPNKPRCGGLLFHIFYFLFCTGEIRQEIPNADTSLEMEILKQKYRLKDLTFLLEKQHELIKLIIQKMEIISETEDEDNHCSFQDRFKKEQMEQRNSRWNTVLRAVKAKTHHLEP
T5 sequence (A0A1D5QMT1 as listed by the source): as the sequence (A0A1D5QMT1 whole entry) above
T2 sequence (Q6RI86 whole entry): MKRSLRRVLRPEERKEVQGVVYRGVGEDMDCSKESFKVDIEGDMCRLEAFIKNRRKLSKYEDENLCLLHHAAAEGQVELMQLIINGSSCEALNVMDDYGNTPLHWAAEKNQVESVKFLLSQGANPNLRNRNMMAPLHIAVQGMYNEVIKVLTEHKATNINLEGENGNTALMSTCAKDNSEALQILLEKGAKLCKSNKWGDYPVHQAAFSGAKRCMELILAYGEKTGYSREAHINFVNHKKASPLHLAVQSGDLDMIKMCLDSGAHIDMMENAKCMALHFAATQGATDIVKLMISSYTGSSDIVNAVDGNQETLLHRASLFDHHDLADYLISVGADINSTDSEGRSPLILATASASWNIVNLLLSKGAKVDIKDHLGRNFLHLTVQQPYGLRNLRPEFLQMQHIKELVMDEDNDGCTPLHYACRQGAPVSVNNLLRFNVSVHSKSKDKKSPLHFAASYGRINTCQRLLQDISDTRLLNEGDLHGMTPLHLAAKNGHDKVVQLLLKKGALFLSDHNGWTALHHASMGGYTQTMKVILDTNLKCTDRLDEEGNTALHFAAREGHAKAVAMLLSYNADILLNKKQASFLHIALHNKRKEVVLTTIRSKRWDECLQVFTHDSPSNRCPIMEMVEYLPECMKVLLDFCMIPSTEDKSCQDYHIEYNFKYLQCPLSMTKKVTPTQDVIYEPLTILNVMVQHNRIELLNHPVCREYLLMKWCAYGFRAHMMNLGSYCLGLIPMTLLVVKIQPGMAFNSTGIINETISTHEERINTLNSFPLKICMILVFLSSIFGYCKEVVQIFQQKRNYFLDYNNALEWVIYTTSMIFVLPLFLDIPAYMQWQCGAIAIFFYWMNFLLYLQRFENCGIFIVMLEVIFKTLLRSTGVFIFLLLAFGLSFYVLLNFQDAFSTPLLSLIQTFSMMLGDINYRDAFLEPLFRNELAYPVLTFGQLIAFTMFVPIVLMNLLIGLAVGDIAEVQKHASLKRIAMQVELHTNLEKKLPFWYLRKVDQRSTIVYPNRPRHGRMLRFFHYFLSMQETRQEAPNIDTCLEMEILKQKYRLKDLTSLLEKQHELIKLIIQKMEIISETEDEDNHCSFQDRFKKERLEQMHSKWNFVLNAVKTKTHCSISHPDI
Sequence of Transient receptor potential cation channel subfamily A member 1 (Rattus norvegicus) (Q6RI86 whole entry): as above

| Compound | pIC50 [1] | pIC50 [2] | pIC50 [3] | pIC50 [4] | pEC50 [5] | Emax [6] [%] | pEC50 [7] | Emax [8] [%] | Emax [9] [%] | Emax [10] [%] | pEC50 [11] | pEC50 [12] | pIC50 [13] | pIC50 [14] | Activity [15] | Activity [16] | Activity [17] | Activity [18] | Activity [19] |
| --- | --- | --- | --- | --- | --- | --- | --- | --- | --- | --- | --- | --- | --- | --- | --- | --- | --- | --- | --- |
| CC(C)c1ccc(NC(=O)Cn2cnc3c2c(=O)n(C)c(=O)n3C)cc1 | 5.13 | 5.12 | 5.17 | 5.14 | – | – | – | – | – | – | – | – | – | – | – | – | – | – | – |
| O=C/C=C/c1ccccc1 | – | – | – | – | 5.47 | 71 | 4.90 | 81 | 84 | 89 | 4.62 | 5.27 | – | – | – | – | – | – | – |
| CCCCC/C=C/C=C1/C(=O)C=C[C@@H]1C/C=C\CCCC(=O)O | – | – | – | – | 4.25 | 65 | 4.39 | 75 | – | 70 | < 4.00 | 4.70 | – | – | – | – | – | – | – |
| CCCCCC(O)/C=C/C=O (configuration not stated) [4-HYDROXYNON-2-ENAL] | – | – | – | – | 5.18 | 72 | 5.00 | 80 | – | 76 | < 4.00 | 5.22 | – | – | – | – | – | – | – |
| CCC(=N\O)/C(C)=C/c1ccc(F)cc1 [A-079] | – | 6.48 | 6.12 | 6.22 | – | – | – | – | – | – | – | – | 5.79 | 6.22 | – | – | – | – | – |
| CC(=C\c1ccc(Cl)cc1)/C(C)=N/O [AP18 5] | 5.04 | 4.40 | 4.48 | 4.25 | – | – | – | – | – | – | – | – | – | – | – | – | – | – | – |
| Cn1c(=O)c2c(ncn2C)n(C)c1=O [CAFFEINE] | 3.01 | – | – | < 3.00 | 4.21 | 52 | – | – | – | 44 | – | 4.02 | – | – | Active | Active | Active | Active | – |
| CC1CCC(C(C)C)C(O)C1 (configuration not stated) [MENTHOL] | < 3.00 | 3.29 | 3.02 | < 3.00 | 5.28 | 40 | 3.56 | 80 | – | 41 | < 3.52 | 5.15 | – | – | – | – | – | – | inactive |
| CC(C)=CCC/C(C)=C/CC/C(C)=C/CSc1ccccc1C(=O)O [SALIRASIB] | – | – | – | – | 4.07 | 105 | 5.31 | 106 | 112 | 89 | 3.78 | 3.99 | – | – | – | – | – | – | – |
| NC(=O)c1cccc(-c2cccc(OC(=O)NC3CCCCC3)c2)c1 [URB-597] | – | – | – | – | 4.13 | 77 | 5.12 | 85 | – | 72 | < 4.00 | 3.89 | – | – | – | – | – | – | – |
